Patent EP4512806A1, “MOLECULAR GLUE DEGRADERS AND USES THEREOF” (Mablink Bioscience, priority 2023, dated 2025)
Values belong to the molecule of their own block, whether it stands above or below them. Peptide text beside a SMILES is read from it. * marks the point of attachment. Cbz = O=C(OCc1ccccc1)*

Tests used:
[1] = system: BT-474; experiment: In vitro cytotoxicity assay (MTT); assay type: cell-based, human; conditions: 6 days incubation
Source text: (§1) Human cancer cell lines used in the present project were purchased from either the American Type Culture Collection (ATCC), The Leibniz Institute DSMZ German Collection of Microorganisms and Cell Cultures GmbH (DSMZ) or the European Collection of Authenticated Cell Cultures (ECACC). For use in experiments, cells were cultivated following good and established cell culture practices, following instructions from the original ATCC/DSMZ/ECACC supplier for cell culture media & supplement, cryopreservation, and subculturing procedures. Cells were incubated under a 5% CO2 atmosphere at 37°C for no longer than 2 months.
(§2) In vitro cytotoxicity of compounds of the disclosure was assessed on several cancerous human cell lines. Cells were plated in 96-well plates at an appropriate density depending on the cell line (between 1000 and 10 000 cells/well in 100µL of appropriate culture media) and incubated at 37°C for 24 hours. Serial dilutions of the tested compound previously dissolved in culture media (50µL) were added, and incubation was carried at 37°C out for 6 days. MTT (5mg/mL in PBS, 20µL, Sigma-Aldrich) was added into the wells, and incubation was continued for 1 to 4 hours at 37°C. Culture media was then carefully removed, and well content was homogeneously dissolved with acidified isopropanol. Absorbance values were measured on a microplate reader using a wavelength of 570 nm (with a reference wavelength of 690 nm). The IC50 concentration values compared to untreated control cells were determined using inhibition dose response curve fitting (GraphPad Prism 9). Exatecan mesylate (cat#HY-13631A) and CR8 (CAS# 294646-77-8; cat#HY-18340) were purchased from MedChemExpress (China).

[2] = system: JIMT-1; experiment: In vitro cytotoxicity assay (MTT); assay type: cell-based, human; conditions: 6 days incubation
Source text: as §1, §2

[3] = system: MDA-MB-231; experiment: In vitro cytotoxicity assay (MTT); assay type: cell-based, human; conditions: 6 days incubation
Source text: as §1, §2

[4] = system: MDA-MB-453; experiment: In vitro cytotoxicity assay (MTT); assay type: cell-based, human; conditions: 6 days incubation
Source text: as §1, §2

[5] = system: NCI-N87; experiment: In vitro cytotoxicity assay (MTT); assay type: cell-based, human; conditions: 6 days incubation
Source text: as §1, §2

[6] = system: SKBR-3; experiment: In vitro cytotoxicity assay (MTT); assay type: cell-based, human; conditions: 6 days incubation
Source text: as §1, §2

[7] = Passive permeability assessment (PAMPA assay); assay type: in vitro ADME; conditions: in words
[8] = biological target: T1, MDR1 (Homo sapiens, UniProt P08183); experiment: MDR1 efflux substrate assay (MDCK-MDR1); assay type: in vitro ADME; conditions: MDCK-MDR1, 5µM, 60 min, in words
T1 construct: host or cells: MDCK-MDR1
Protocol: (§3) MDR1 and BCRP efflux substrate assays were conducted in MDCK-MDR1 and MDCK-BCRP in vitro models (Preadyport™, Solvo Biotech) at Symeres (Nederland). Compound of the invention (donor well concentration of 5µM) were incubated in cell monolayer 24-transwell Preadyport system, using Preadyport recommended pH 7.4 assay buffer (donor and receiver wells). After 60 min of incubation (no shaking), samples are collected and suspended into triple volume of 66% cold acetonitrile. Samples are stored at -20°C until thawed, centrifuged and analyzed by LC-MS. Quinidine was used a positive control for the MDR1 assay, and prazosin was used as a positive control for the BCRP assay. Exatecan was used as a control, known not to be an MDR1 substrate. Residual DMSO content from compounds stock solutions was below 1% (v/v). The assay was performed in duplicate. The quantification of test compounds in donor or receptor compartment is conducted using relative LC/MS peak areas (samples of initial incubation solutions are used as a single point calibrator), without any spiked standard samples. The data is used for estimating apparent permeability (Papp) and calculation of efflux ratio.
MDR1 is protein of the tumor cell membrane that pumps the anticancer drugs out of cancer cells, thereby rendering the cell drug-resistant. The Papp (10^-6 cm/s) B (acceptor = basolateral) to A (donor = apical) reflects the susceptibility of a compounds to be pumped out of a tumor and as such a low Papp B→A value is advantageous in the context of oncology. The efflux ratio B/A reflects the overall ability of a compounds to enter MDR1-expressing tumor cells (equilibrium between ability to passively enter the cell A→B and susceptibility to be pumped out of a tumor B→A).

[9] = biological target: T2, BCRP (Homo sapiens, UniProt Q9UNQ0); experiment: BCRP efflux substrate assay (MDCK-BCRP); assay type: in vitro ADME; conditions: 5µM, 60 min, in words
T2 construct: host or cells: MDCK-BCRP
T2 sequence (Q9UNQ0 1-655): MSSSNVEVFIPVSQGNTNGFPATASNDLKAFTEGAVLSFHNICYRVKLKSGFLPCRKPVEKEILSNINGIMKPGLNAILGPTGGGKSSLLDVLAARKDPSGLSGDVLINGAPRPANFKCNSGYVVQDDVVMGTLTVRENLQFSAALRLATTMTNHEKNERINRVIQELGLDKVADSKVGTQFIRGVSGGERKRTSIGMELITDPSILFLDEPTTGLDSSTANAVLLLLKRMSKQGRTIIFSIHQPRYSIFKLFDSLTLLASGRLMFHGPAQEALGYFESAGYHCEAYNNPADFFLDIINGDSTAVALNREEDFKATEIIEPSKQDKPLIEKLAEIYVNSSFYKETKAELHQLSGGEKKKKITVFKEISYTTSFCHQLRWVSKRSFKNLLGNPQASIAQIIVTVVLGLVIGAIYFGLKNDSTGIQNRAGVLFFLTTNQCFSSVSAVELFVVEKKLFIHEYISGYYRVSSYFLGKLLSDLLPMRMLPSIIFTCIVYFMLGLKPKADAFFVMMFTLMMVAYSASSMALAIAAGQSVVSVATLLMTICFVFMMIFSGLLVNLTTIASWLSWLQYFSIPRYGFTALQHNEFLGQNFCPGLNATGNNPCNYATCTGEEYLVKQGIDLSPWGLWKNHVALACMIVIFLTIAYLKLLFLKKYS
Protocol: as §3
BCRP, like MDR1, is a protein of the tumor cell membrane that pumps the anticancer drugs out of cancer cells, thereby rendering the cell drug-resistant. This multidrug-resistant protein is particularly expressed in breast and lung cancers. The efflux ratio B/A reflects the overall ability of a compounds to enter BCRP-expressing tumor cells (equilibrium between ability to passively enter the cell A→B and susceptibility to be pumped out of a tumor B→A).

[10] = In vivo mice tolerability assessment; conditions: female CD-1 mice, single intravenous 1mg/kg dose, Mean
Protocol: All animal procedures were performed in accordance with the European Union directive 86/609/EEC. Experiments were performed under individual permit and in accredited animal care facilities.
Mouse tolerability experiments were performed with selected compounds of the disclosure. Female CD-1 mice (n=5 mice per group) were treated with a single intravenous 1mg/kg dose of compound. Vehicle was PBS pH 6.0. Mice were carefully monitored for mortality, external clinical findings, weight loss, behavior and apparent signs of toxicity over the course of 21 days.

[11] = biological target: T3, CycK (Homo sapiens, UniProt O75909); experiment: CycK protein quantification by Western Blot in JIMT-1 cells; assay type: cell-based; conditions: 2h
T3 construct: endogenous in cells; host or cells: JIMT-1
Protocol: 1×10^6 JIMT-1 cells were plated in 3mL of DMEM/FBS 90:10 (v/v) in 6-well plates and incubated overnight. Cells were treated with the compound 2384 of the invention with or without the proteasome inhibitor MG-132 (MedChemExpress, Cat HY-13259) for 2h. Cells were harvested, and protein were extracted using complete RIPA buffer (RIPA buffer, 1 mM DTT, 1M NaF, 100 mM sodium orthovanadate, phosphatase inhibitor buffer and protease inhibitors) for 1 hour on ice. Lysate were centrifuged 15min at 12 000g at 4°C. and proteins were mixed with 4x Laemmli Sample Buffer (Bio-Rad), heated at 95 °C for 5 mins and separated by SDS PAGE (PROTEAN TGX Stain-Free Gels, Bio-Rad). Proteins were then transferred onto PVDF membrane (iBlot®2 PVDF stacks, Invitrogen) using the iBlot2 device (Invitrogen) and blocked with TBS buffer (Intercept® Blocking Buffer, LI-COR Biosciences). Primary antibodies were incubated overnight at 4°C and secondary antibodies (IRDye Infrared Dyes from LI-COR Biosciences) 1 hour at room temperature. Used primary antibody were: anti-CycK (cat#A301-939A, Bethyl Laboratories, dil. 1:1000) and anti-β-actin (cat#A5441, Sigma-Aldrich, dil. 1:5000). Membranes were scanned using a c500 Imaging System (Azure Biosystems) and densitometric quantification were performed using imaged software. Protein levels were normalized against β-actin.

T1 sequence (P08183 whole entry): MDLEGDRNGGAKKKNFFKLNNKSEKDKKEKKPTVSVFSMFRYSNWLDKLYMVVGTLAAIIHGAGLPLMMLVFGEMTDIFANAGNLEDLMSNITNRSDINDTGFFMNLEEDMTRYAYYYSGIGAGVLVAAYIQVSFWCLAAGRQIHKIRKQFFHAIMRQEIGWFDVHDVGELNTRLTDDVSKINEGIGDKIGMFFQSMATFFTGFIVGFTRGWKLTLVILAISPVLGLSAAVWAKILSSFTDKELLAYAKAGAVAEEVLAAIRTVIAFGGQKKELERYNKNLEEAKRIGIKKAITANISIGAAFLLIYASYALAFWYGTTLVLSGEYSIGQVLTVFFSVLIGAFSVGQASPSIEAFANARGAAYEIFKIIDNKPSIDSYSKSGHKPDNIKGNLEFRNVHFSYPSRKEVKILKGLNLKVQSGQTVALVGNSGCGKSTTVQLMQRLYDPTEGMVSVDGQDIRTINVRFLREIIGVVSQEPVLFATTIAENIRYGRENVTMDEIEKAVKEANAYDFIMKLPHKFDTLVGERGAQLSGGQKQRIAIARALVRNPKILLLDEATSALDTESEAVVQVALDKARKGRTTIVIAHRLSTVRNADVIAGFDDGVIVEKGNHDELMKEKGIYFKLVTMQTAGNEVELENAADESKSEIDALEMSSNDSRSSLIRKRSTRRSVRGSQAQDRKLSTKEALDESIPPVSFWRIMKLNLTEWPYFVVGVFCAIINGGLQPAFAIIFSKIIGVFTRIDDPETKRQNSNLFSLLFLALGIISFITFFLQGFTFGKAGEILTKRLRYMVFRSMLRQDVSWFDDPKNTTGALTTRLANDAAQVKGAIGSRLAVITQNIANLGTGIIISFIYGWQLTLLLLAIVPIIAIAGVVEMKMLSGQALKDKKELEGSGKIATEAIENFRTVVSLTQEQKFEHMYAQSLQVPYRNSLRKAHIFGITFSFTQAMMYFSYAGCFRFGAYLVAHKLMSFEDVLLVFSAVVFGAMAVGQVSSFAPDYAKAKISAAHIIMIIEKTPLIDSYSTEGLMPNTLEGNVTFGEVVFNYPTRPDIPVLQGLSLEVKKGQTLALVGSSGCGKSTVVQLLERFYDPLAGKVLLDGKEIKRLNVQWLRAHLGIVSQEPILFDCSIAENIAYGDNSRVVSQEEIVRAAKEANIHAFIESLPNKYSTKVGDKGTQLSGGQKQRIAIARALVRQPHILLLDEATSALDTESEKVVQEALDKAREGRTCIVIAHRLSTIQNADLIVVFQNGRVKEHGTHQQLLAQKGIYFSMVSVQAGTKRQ
T3 sequence (O75909 whole entry): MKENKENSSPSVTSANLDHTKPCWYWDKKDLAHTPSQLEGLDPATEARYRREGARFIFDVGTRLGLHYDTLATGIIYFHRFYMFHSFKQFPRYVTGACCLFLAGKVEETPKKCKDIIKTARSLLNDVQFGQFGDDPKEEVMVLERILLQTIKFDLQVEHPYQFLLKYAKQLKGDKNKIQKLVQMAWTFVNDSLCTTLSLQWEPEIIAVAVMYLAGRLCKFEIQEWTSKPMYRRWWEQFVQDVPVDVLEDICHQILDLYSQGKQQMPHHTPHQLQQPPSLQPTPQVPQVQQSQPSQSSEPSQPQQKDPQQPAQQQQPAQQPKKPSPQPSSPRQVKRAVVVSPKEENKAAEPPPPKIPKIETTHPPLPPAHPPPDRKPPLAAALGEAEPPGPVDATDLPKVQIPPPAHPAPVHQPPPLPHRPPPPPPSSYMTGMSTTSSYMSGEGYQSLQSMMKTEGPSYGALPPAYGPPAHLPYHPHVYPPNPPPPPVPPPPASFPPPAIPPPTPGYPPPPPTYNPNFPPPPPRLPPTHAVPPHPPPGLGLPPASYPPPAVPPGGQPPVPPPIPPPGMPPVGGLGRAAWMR
T3 sequence (Q9NYV4 whole entry partner): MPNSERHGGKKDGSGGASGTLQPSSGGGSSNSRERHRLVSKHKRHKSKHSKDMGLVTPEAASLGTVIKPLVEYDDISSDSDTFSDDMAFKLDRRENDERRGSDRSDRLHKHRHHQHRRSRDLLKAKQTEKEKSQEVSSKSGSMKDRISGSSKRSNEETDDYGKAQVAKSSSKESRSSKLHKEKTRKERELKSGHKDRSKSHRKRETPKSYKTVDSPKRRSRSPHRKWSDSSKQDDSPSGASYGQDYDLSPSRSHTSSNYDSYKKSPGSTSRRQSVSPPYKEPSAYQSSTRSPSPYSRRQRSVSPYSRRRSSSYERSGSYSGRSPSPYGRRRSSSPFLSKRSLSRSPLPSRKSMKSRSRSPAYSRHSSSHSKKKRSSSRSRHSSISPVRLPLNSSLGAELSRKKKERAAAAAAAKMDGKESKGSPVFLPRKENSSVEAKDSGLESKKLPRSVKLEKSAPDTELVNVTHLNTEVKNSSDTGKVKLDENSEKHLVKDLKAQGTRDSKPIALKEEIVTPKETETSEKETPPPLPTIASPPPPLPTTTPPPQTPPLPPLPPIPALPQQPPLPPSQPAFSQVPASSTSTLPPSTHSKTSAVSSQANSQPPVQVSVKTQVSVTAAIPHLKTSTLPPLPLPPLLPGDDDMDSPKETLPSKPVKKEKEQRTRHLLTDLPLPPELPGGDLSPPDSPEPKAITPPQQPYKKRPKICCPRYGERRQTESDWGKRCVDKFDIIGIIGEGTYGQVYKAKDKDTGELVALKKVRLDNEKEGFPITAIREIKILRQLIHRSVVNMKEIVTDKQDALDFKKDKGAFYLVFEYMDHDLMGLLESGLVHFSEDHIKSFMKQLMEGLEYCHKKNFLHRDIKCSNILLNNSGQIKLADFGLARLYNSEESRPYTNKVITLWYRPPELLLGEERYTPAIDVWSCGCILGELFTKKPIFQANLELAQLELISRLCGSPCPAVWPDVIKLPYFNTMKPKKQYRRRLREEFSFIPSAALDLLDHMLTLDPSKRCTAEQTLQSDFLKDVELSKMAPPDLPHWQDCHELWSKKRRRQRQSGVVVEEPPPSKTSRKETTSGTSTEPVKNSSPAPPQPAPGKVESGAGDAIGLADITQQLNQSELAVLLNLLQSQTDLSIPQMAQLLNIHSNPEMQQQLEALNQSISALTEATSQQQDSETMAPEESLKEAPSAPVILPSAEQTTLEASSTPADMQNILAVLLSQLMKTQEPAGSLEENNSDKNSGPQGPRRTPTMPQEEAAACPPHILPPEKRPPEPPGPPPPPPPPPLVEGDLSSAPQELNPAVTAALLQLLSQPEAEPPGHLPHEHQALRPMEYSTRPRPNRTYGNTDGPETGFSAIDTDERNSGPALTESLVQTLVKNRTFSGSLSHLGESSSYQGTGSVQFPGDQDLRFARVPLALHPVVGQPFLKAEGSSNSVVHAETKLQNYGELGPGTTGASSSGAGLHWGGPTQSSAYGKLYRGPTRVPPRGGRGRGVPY
T3 sequence (Q16531 whole entry partner): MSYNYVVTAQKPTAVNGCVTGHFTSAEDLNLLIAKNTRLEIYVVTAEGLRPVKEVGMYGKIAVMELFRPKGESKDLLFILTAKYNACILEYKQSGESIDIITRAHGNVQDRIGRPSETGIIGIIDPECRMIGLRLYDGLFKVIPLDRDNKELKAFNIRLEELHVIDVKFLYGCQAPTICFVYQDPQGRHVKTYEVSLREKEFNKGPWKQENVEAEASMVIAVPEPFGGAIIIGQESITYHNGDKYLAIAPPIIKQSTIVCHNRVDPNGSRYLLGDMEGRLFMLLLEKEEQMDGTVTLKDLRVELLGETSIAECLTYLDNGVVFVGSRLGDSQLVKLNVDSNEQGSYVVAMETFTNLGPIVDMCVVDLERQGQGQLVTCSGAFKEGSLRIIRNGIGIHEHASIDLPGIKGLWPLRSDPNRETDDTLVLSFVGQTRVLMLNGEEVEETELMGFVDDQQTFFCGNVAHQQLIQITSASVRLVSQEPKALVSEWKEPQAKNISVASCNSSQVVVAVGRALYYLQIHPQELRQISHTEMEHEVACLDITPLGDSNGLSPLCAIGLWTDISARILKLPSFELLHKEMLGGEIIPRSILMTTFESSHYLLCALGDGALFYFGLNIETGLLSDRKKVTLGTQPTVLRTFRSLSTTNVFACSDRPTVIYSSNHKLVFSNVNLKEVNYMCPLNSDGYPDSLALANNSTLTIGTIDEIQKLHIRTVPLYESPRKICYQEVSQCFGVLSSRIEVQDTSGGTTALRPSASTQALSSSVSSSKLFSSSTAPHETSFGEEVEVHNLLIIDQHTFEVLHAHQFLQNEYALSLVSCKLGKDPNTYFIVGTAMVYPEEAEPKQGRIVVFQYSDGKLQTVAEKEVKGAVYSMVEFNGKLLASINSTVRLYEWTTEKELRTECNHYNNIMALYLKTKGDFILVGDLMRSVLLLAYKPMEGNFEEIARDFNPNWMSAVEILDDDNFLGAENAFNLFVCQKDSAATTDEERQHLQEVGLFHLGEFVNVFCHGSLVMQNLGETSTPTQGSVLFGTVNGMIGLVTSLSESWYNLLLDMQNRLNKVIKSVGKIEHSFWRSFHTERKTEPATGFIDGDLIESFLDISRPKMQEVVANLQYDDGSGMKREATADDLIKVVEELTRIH

SMILES: Brc1cnn2c(Nc3ccc(CN4CCOCC4)cc3)nc(NC3CCNCC3)nc12 [Compound 2554]
IC50 [1]: > 100 nM
IC50 [2]: > 100 nM
IC50 [3]: > 100 nM
IC50 [4]: > 100 nM
IC50 [5]: > 100 nM
IC50 [6]: > 100 nM

SMILES: NC[C@H]1CC[C@H](Nc2nc(NCc3ccc(-c4ccccn4)cc3)n3ncc(Br)c3n2)CC1 [Compound 2636]
passive permeability potential [7]: moderate

SMILES: Brc1cnn2c(NCc3ccc(-c4ccccn4)cc3)nc(N[C@H]3CCNC3)nc12 [Compound 2657]
IC50 [1]: 1.71 nM
IC50 [3]: 0.56 nM
IC50 [4]: 0.77 nM
IC50 [5]: 0.43 nM
IC50 [6]: 0.13 nM
average weight change (% initial weight) ([10]; Study Day 1): 0.0 % initial weight
average weight change (% initial weight) ([10]; Study Day 2): 1.3 % initial weight
average weight change (% initial weight) ([10]; Study Day 3): 1.5 % initial weight
average weight change (% initial weight) ([10]; Study Day 4): 1.7 % initial weight
average weight change (% initial weight) ([10]; Study Day 5): 2.3 % initial weight
average weight change (% initial weight) ([10]; Study Day 6): 4.2 % initial weight
average weight change (% initial weight) ([10]; Study Day 7): 3.3 % initial weight
average weight change (% initial weight) ([10]; Study Day 8): 4.2 % initial weight
average weight change (% initial weight) ([10]; Study Day 9): 4.5 % initial weight
average weight change (% initial weight) ([10]; Study Day 10): 7.8 % initial weight
average weight change (% initial weight) ([10]; Study Day 11): 7.7 % initial weight
average weight change (% initial weight) ([10]; Study Day 12): 8.0 % initial weight
average weight change (% initial weight) ([10]; Study Day 13): 7.9 % initial weight
average weight change (% initial weight) ([10]; Study Day 14): 8.0 % initial weight
average weight change (% initial weight) ([10]; Study Day 15): 7.9 % initial weight
average weight change (% initial weight) ([10]; Study Day 16): 9.4 % initial weight
average weight change (% initial weight) ([10]; Study Day 17): 9.3 % initial weight
average weight change (% initial weight) ([10]; Study Day 18): 9.8 % initial weight
average weight change (% initial weight) ([10]; Study Day 19): 10.5 % initial weight
average weight change (% initial weight) ([10]; Study Day 20): 11.4 % initial weight
average weight change (% initial weight) ([10]; Study Day 21): 12.0 % initial weight

SMILES: N[C@H]1CCCC[C@@H]1Nc1nc(NCc2ccc(-c3ccccn3)cc2)n2ncc(Br)c2n1 [Compound 2671]
passive permeability potential [7]: high

SMILES: CC(C)C[C@@H](C=O)NC(=O)[C@H](CC(C)C)NC(=O)[C@H](CC(C)C)NC(=O)OCc1ccccc1 [MG-132, reference compound] (Cbz-Leu-Leu-Leu-aldehyde)
CycK protein content in combination with proteasome inhibitor ([11]; degrader combined with MG-132): restored the content in cycK protein

SMILES: CN(C)C/C=C/C(=O)Nc1ccc(C(=O)N2CCC[C@@H](Nc3ncc(Cl)c(-c4c[nH]c5ccccc45)n3)C2)cc1 [THZ-531, reference compound]
CycK protein content ([11]; 1µM final concentration): no impact

Next, values leading:

passive permeability potential [7]: none
SMILES: NCCCCNc1nc(NCc2ccc(-c3ccccn3)cc2)n2ncc(Br)c2n1 [Compound 2585]

MDR1 efflux potential [8]: low level
BCRP efflux potential [9]: low level
SMILES: CN(CCN)c1nc(NCc2ccc(-c3ccccn3)cc2)n2ncc(Br)c2n1 [Compound 2600]

MDR1 efflux potential [8]: low level
BCRP efflux potential [9]: low level
SMILES: CNCCN(C)c1nc(NCc2ccc(-c3ccccn3)cc2)n2ncc(Br)c2n1 [Compound 2605]

MDR1 efflux potential [8]: low level
BCRP efflux potential [9]: low level
SMILES: N[C@H]1CCN(c2nc(NCc3ccc(-c4ccccn4)cc3)n3ncc(Br)c3n2)C1 [Compound 2655]
